Data taken from the supplement of paper PMC13380429.

What was measured:
[1] = test system: A549-ACE2 infected with SARS-CoV-2; test: cell count relative to DMSO; higher = less toxic; settings: 24 h
Caco-2 [2] = test: cell viability relative to DMSO; higher = less toxic; settings: 72 h
Calu-3 [3] = test: as above; settings: 72 h
HepG2 [4] = test: as above; settings: 72 h
U2OS [5] = test: as above; settings: 72 h
Vero E6 [6] = test: as above; settings: 72 h
[7] = test system: A549-ACE2 infected with SARS-CoV-2; test: SARS-CoV-2 infection rate relative to DMSO; higher = more infection; settings: 24 h
A549-ACE2 [8] = test: phospholipidosis EC50; higher = less potent phospholipidosis inducer
A549-ACE2 [9] = test: drug-induced phospholipidosis relative to tamoxifen; higher = more phospholipidosis
[10] = test system: A549-ACE2 infected with SARS-CoV-2; test: morphology score (similarity to uninfected cells); higher = more like uninfected cells; settings: 24 h
Caco-2 [11] = test: relative viability EC50 (midpoint between 100% and the lowest measured viability); higher = less toxic; settings: 72 h
Calu-3 [12] = test: as above; settings: 72 h
U2OS [13] = test: as above; settings: 72 h
Vero E6 [14] = test: as above; settings: 72 h
Caco-2 [15] = test: drug sensitivity score (DSS) for viability; higher = more toxic; extreme values may be limits of the assay; settings: 72 h
Calu-3 [16] = test: as above; settings: 72 h
HepG2 [17] = test: as above; settings: 72 h
U2OS [18] = test: as above; settings: 72 h
Vero E6 [19] = test: as above; settings: 72 h
HepG2 [20] = test: relative viability EC50 (midpoint between 100% and the lowest measured viability); higher = less toxic; settings: 72 h

COc1cc(C[C@H]2c3cc(OC)c(OC)cc3CCN2C)c(Oc2cc3c(cc2OC)-c2c(OC)c(OC)cc4c2[C@H](C3)N(C)CC4)cc1OC [thaliblastine]
Settings | SARS-CoV-2 infection rate [%] | cell count [%] | cell viability [%] | morphology score | phospholipidosis EC50 [µM]
A549-ACE2 [8], 24 h | – | – | – | – | 1.3
A549-ACE2 [8], 48 h | – | – | – | – | 2.7
A549-ACE2 [8], 72 h | – | – | – | – | 6.76
Caco-2 [2], 1 nM | – | – | 88.3 | – | –
Caco-2 [2], 10 nM | – | – | 93.6 | – | –
Caco-2 [2], 100 nM | – | – | 104 | – | –
Caco-2 [2], 1000 nM | – | – | 102 | – | –
Caco-2 [2], 10000 nM | – | – | 86 | – | –
Calu-3 [3], 1 nM | – | – | 102 | – | –
Calu-3 [3], 10 nM | – | – | 109 | – | –
Calu-3 [3], 100 nM | – | – | 97.1 | – | –
Calu-3 [3], 1000 nM | – | – | 90.2 | – | –
Calu-3 [3], 10000 nM | – | – | 18.2 | – | –
HepG2 [4], 1 nM | – | – | 92.4 | – | –
HepG2 [4], 10 nM | – | – | 111 | – | –
HepG2 [4], 100 nM | – | – | 96.3 | – | –
HepG2 [4], 1000 nM | – | – | 105 | – | –
HepG2 [4], 10000 nM | – | – | 62 | – | –
U2OS [5], 1 nM | – | – | 94.4 | – | –
U2OS [5], 10 nM | – | – | 93.9 | – | –
U2OS [5], 100 nM | – | – | 100 | – | –
U2OS [5], 1000 nM | – | – | 96.6 | – | –
U2OS [5], 10000 nM | – | – | 83 | – | –
Vero E6 [6], 1 nM | – | – | 90.6 | – | –
Vero E6 [6], 10 nM | – | – | 100 | – | –
Vero E6 [6], 100 nM | – | – | 89.8 | – | –
Vero E6 [6], 1000 nM | – | – | 102 | – | –
Vero E6 [6], 10000 nM | – | – | 96.6 | – | –
[1], 0.3 µM | – | 109 | – | – | –
[1], 3 µM | – | 120 | – | – | –
[1], 10 µM | – | 122 | – | – | –
[1], 30 µM | – | 115 | – | – | –
[7], 0.3 µM | 95 | – | – | – | –
[7], 3 µM | 28 | – | – | – | –
[7], 10 µM | 21 | – | – | – | –
[7], 30 µM | 34 | – | – | – | –
[10], 0.3 µM | – | – | – | 0.32 | –
[10], 3 µM | – | – | – | 0.61 | –
[10], 10 µM | – | – | – | 0.29 | –
[10], 30 µM | – | – | – | -0.02 | –

drug-induced phospholipidosis [%], A549-ACE2 [9]
Settings | 0.3 µM | 0.833333 µM | 3.33333 µM | 6.66667 µM | 10 µM | 30 µM
24 h | 9.75 | 20.6 | 72.4 | 86.2 | 80.5 | 65.6
48 h | 11.1 | 12.9 | 77.4 | 95.4 | 104 | 120
72 h | 10.4 | 12.7 | 67.9 | 103 | 105 | 154

Settings | drug sensitivity score | relative viability EC50 [µM]
Caco-2 [11] | – | > 10
Caco-2 [15] | 0.1 | –
Calu-3 [12] | – | 2.18
Calu-3 [16] | 6.2 | –
HepG2 [17] | 1.5 | –
U2OS [13] | – | > 10
U2OS [18] | 0.8 | –
Vero E6 [14] | – | > 10
Vero E6 [19] | 0 | –

Cc1ccccc1C(=O)Nc1ccc(C(=O)N2CCCC(O)c3cc(Cl)ccc32)c(C)c1 (configuration not stated) [tolvaptan]
cell viability [%]
Settings | Caco-2 [2] | Calu-3 [3] | HepG2 [4] | U2OS [5] | Vero E6 [6]
1 nM | 100 | 91 | 99.7 | 94.2 | 99.4
10 nM | 96.4 | 86.3 | 93 | 92.1 | 100
100 nM | 90.1 | 91.7 | 96.4 | 103 | 93.4
1000 nM | 89.8 | 78.8 | 106 | 97.4 | 98.3
10000 nM | 94.1 | 102 | 110 | 96.7 | 104

Settings | drug sensitivity score | relative viability EC50 [µM]
Caco-2 [11] | – | > 10
Caco-2 [15] | 0.1 | –
Calu-3 [12] | – | > 10
Calu-3 [16] | 0.5 | –
HepG2 [17] | 0 | –
HepG2 [20] | – | > 10
U2OS [13] | – | > 10
U2OS [18] | 0 | –
Vero E6 [14] | – | > 10
Vero E6 [19] | 0 | –

Cn1c(=O)cc(N2CCC[C@@H](N)C2)n(Cc2cc(F)ccc2C#N)c1=O [trelagliptin]
cell viability [%]
Settings | Caco-2 [2] | Calu-3 [3] | HepG2 [4] | U2OS [5] | Vero E6 [6]
1 nM | 101 | 98.9 | 96.7 | 104 | 102
10 nM | 98.9 | 110 | 99.1 | 95.6 | 98.4
100 nM | 92.3 | 105 | 88.3 | 96.6 | 99.2
1000 nM | 104 | 102 | 96.5 | 95.1 | 103
10000 nM | 95.6 | 107 | 88.8 | 106 | 98.2

Settings | drug sensitivity score | relative viability EC50 [µM]
Caco-2 [11] | – | > 10
Caco-2 [15] | 0 | –
Calu-3 [12] | – | > 10
Calu-3 [16] | 0 | –
HepG2 [17] | 0 | –
HepG2 [20] | – | > 10
U2OS [13] | – | > 10
U2OS [18] | 0 | –
Vero E6 [14] | – | > 10
Vero E6 [19] | 0 | –

COc1cc(C(=O)NC2CCCNC2)cc(OC)c1OC (configuration not stated) [troxipide]
cell viability [%]
Settings | Caco-2 [2] | Calu-3 [3] | HepG2 [4] | U2OS [5] | Vero E6 [6]
1 nM | 99 | 97.5 | 103 | 106 | 103
10 nM | 103 | 91.3 | 109 | 96.3 | 109
100 nM | 98.4 | 94 | 97.4 | 102 | 101
1000 nM | 97.4 | 106 | 103 | 98.8 | 102
10000 nM | 99.6 | 97.8 | 104 | 101 | 98.4

Settings | drug sensitivity score | relative viability EC50 [µM]
Caco-2 [11] | – | > 10
Caco-2 [15] | 0 | –
Calu-3 [12] | – | > 10
Calu-3 [16] | 0 | –
HepG2 [17] | 0 | –
HepG2 [20] | – | > 10
U2OS [13] | – | > 10
U2OS [18] | 0 | –
Vero E6 [14] | – | > 10
Vero E6 [19] | 0 | –

Clc1ccc(Nc2nnc(Cc3ccncc3)c3ccccc23)cc1 [vatalanib]
cell viability [%]
Settings | Caco-2 [2] | Calu-3 [3] | HepG2 [4] | U2OS [5] | Vero E6 [6]
1 nM | 98.6 | 95.9 | 101 | 103 | 95.9
10 nM | 99.3 | 89.8 | 92.4 | 100 | 93.8
100 nM | 102 | 97.5 | 107 | 100 | 89
1000 nM | 94.7 | 102 | 102 | 101 | 88.8
10000 nM | 84.5 | 90.3 | 83 | 92.7 | 90

Settings | drug sensitivity score | relative viability EC50 [µM]
Caco-2 [11] | – | > 10
Caco-2 [15] | 0.7 | –
Calu-3 [12] | – | > 10
Calu-3 [16] | 0 | –
HepG2 [17] | 0.3 | –
HepG2 [20] | – | > 10
U2OS [13] | – | > 10
U2OS [18] | 0 | –
Vero E6 [14] | – | > 10
Vero E6 [19] | 0.4 | –
